{"source": "paper PMC8263619", "about": "“Functional characteristics of a novel odorant binding protein in the legume pod borer, Maruca vitrata” (Scientific Reports, 2021)", "key": {"MvitOBP3 protein": {"molecular_target": "MvitOBP3 protein", "assay": "Fluorescence competitive binding assay with 1-NPN probe", "parameters": "species or system Maruca vitrata", "details": "recombinant MvitOBP3, 1-NPN fluorescent probe; for IC50: read-out: IC50, ligand concentration displacing 50% of the fluorescence intensity of the MvitOBP/N-phenyl-1-naphthylamine complex; for Ki: read-out: Ki, dissociation constant", "method": "The fluorescence measurement takes advantage of the fluorescent properties of the dye, 1-NPN (N-Phenyl-1-naphthylamine, CAS 90-30-2) and is performed by Hitachi F-4500. The wavelength of excitation light was 337 nm, the range of scanning emission wavelength was 350–500 nm, and the slit width was 5 nm. […] Add 2 mL of the protein with a final concentration of 2 μmol/L to a 1 cm, four-sided quartz cup, then add 1-NPN (1 mM/L) to the final concentration is 2–24 μmol/L. And recorded the maximum fluorescence value and determine the protein dissociation constant K1-NPN.\nIn fluorescence competitive binding assay, the 1-NPN was used as the fluorescent probe, and the dissociation constant (Ki) values of the MvitOBP3/1-NPN complexes were calculated according to the changes in the fluorescence intensity (Fig. 5A). […] These seventeen volatile ligands from host-plant were selected to test binding affinities of MvitOBP3 (Fig. 5 and Table 2)."}, "MvitGOBP1": {"molecular_target": "MvitGOBP1", "parameters": "method as in PMID 26517714", "details": "cited from earlier work"}, "MvitGOBP2 protein": {"molecular_target": "MvitGOBP2 protein", "parameters": "method as in PMID 26517714", "details": "cited from earlier work"}}}
{"smiles": "CCc1cccc(CC)c1", "note": "[1,3-diethylbenzene]", "values": [{"measurement": "IC50", "setting": "MvitOBP3 protein", "result": 33.6, "unit": "µM"}, {"measurement": "Ki", "setting": "MvitOBP3 protein", "result": 29.7, "unit": "µM"}]}
{"smiles": "CC(=O)c1ccc(C(C)=O)cc1", "note": "[1,4-diacetyl benzene]", "values": [{"measurement": "IC50", "setting": "MvitOBP3 protein", "result": 28.4, "unit": "µM"}, {"measurement": "Ki", "setting": "MvitOBP3 protein", "result": 25.1, "unit": "µM"}]}
{"smiles": "CCc1ccc(CC)cc1", "note": "[1,4-diethylbenzene]", "values": [{"measurement": "IC50", "setting": "MvitOBP3 protein", "result": 29.3, "unit": "µM"}, {"measurement": "Ki", "setting": "MvitOBP3 protein", "result": 25.9, "unit": "µM"}]}
{"smiles": "Cc1cc(C)cc(C(C)(C)C)c1", "note": "[1-(1,1-Dimethylethyl)-3,5-dimethylbenzene]", "values": [{"measurement": "IC50", "setting": "MvitOBP3 protein", "result": 21.8, "unit": "µM"}, {"measurement": "Ki", "setting": "MvitOBP3 protein", "result": 19.3, "unit": "µM"}]}
{"smiles": "CC(=O)c1ccc(C)cc1C", "note": "[1-(2,4-Dimethylphenyl)-ethanone]", "values": [{"measurement": "IC50", "setting": "MvitOBP3 protein", "result": 21.4, "unit": "µM"}, {"measurement": "Ki", "setting": "MvitOBP3 protein", "result": 18.9, "unit": "µM"}]}
{"smiles": "CCc1ccc(C(C)=O)cc1", "note": "[1-(4-ethylphenyl)-ethanone]", "values": [{"measurement": "IC50", "setting": "MvitOBP3 protein", "result": 24.1, "unit": "µM"}, {"measurement": "Ki", "setting": "MvitOBP3 protein", "result": 21.3, "unit": "µM"}]}
{"smiles": "Oc1cccc2[nH]ccc12", "note": "[1H-indol-4-ol]", "values": [{"measurement": "Ki", "setting": "MvitGOBP1", "result": 10.9, "unit": "µM"}, {"measurement": "IC50", "setting": "MvitOBP3 protein", "result": 12.6, "unit": "µM"}, {"measurement": "Ki", "setting": "MvitOBP3 protein", "result": 11.2, "unit": "µM"}]}
{"smiles": "O=Cc1ccccc1O", "note": "[2-hydroxybenzaldehyde]", "values": [{"measurement": "IC50", "setting": "MvitOBP3 protein", "result": 24.2, "unit": "µM"}, {"measurement": "Ki", "setting": "MvitOBP3 protein", "result": 21.4, "unit": "µM"}]}
{"smiles": "CC(C=O)Cc1ccccc1", "note": "(stereo not shown) [2-methyl-3-phenylpropanal]", "values": [{"measurement": "IC50", "setting": "MvitOBP3 protein", "result": 10.6, "unit": "µM"}, {"measurement": "Ki", "setting": "MvitOBP3 protein", "result": 9.38, "unit": "µM"}, {"measurement": "Ki", "setting": "MvitGOBP2 protein", "result": 3.81, "unit": "µM"}]}
{"smiles": "CCc1ccc(C=O)cc1", "note": "[4-ethylbenzaldehyde]", "values": [{"measurement": "IC50", "setting": "MvitOBP3 protein", "result": 22.8, "unit": "µM"}, {"measurement": "Ki", "setting": "MvitOBP3 protein", "result": 20.1, "unit": "µM"}]}
{"smiles": "CCC(=O)c1ccc(CC)cc1", "note": "[4-ethylpropiophenone]", "values": [{"measurement": "Ki", "setting": "MvitGOBP1", "result": 14.2, "unit": "µM"}, {"measurement": "IC50", "setting": "MvitOBP3 protein", "result": 26.7, "unit": "µM"}, {"measurement": "Ki", "setting": "MvitOBP3 protein", "result": 23.6, "unit": "µM"}]}
{"smiles": "CC(=O)c1ccc(O)c(C)c1", "note": "[4-hydroxy-3-methylacetophenone]", "values": [{"measurement": "IC50", "setting": "MvitOBP3 protein", "result": 22.7, "unit": "µM"}, {"measurement": "Ki", "setting": "MvitOBP3 protein", "result": 20.1, "unit": "µM"}]}
{"smiles": "CC(=O)c1ccccc1", "note": "[Acetophenone]", "values": [{"measurement": "IC50", "setting": "MvitOBP3 protein", "result": 41.8, "unit": "µM"}, {"measurement": "Ki", "setting": "MvitOBP3 protein", "result": 37, "unit": "µM"}]}
{"smiles": "O=Cc1ccccc1", "note": "[Benzaldehyde]", "values": [{"measurement": "IC50", "setting": "MvitOBP3 protein", "result": 43.3, "unit": "µM"}, {"measurement": "Ki", "setting": "MvitOBP3 protein", "result": 38.3, "unit": "µM"}]}
{"smiles": "CCCCOC(=O)CCC", "note": "[Butanoic acid butyl ester]", "values": [{"measurement": "Ki", "setting": "MvitGOBP1", "result": 12.5, "unit": "µM"}, {"measurement": "IC50", "setting": "MvitOBP3 protein", "result": 11.1, "unit": "µM"}, {"measurement": "Ki", "setting": "MvitOBP3 protein", "result": 9.79, "unit": "µM"}]}
{"smiles": "CCCCCCCCOC(=O)CCC", "note": "[Butanoic acid octyl ester]", "values": [{"measurement": "IC50", "setting": "MvitOBP3 protein", "result": 21.2, "unit": "µM"}, {"measurement": "Ki", "setting": "MvitOBP3 protein", "result": 18.7, "unit": "µM"}, {"measurement": "Ki", "setting": "MvitGOBP2 protein", "result": 8.5, "unit": "µM"}]}
{"smiles": "C=C(C)C1CC=C(C)CC1", "note": "(stereo not shown) [Limonene]", "values": [{"measurement": "Ki", "setting": "MvitGOBP1", "result": 13.8, "unit": "µM"}, {"measurement": "IC50", "setting": "MvitOBP3 protein", "result": 9.4, "unit": "µM"}, {"measurement": "Ki", "setting": "MvitOBP3 protein", "result": 8.31, "unit": "µM"}]}
